The values below are quoted from earlier work in US5888537A, “Vinca alkaloid vesicles with enhanced efficacy and tumor targeting properties” (priority 1997, dated 1999).

The conditions of this data set: clinical use, background.

Read-outs that look alike come from different tables or passages of the source.

Turning to `CC[C@]1(O)C[C@H]2CN(CCc3c([nH]c4ccccc34)[C@@](C(=O)OC)(c3cc4c(cc3OC)N(C=O)[C@H]3[C@@](O)(C(=O)OC)[C@H](OC(C)=O)[C@]5(CC)C=CCN6CC[C@]43[C@@H]65)C2)C1` [Free Vcr, vincristine], the side effect result is “Neurotoxicity” (listed as Vincristine); “Alopecia and hair loss” (listed as vincristine).
Turning to `CC[C@]1(O)C[C@@H]2CN(CCc3c([nH]c4ccccc34)[C@@](C(=O)OC)(c3cc4c(cc3OC)N(C)[C@H]3[C@@](O)(C(=O)OC)[C@H](OC(C)=O)[C@]5(CC)C=CCN6CC[C@]43[C@@H]65)C2)C1` [vinblastine], the side effect result was “Alopecia and hair loss”.
